In patent US20110269695A1, “NOVEL ANTI-AGING PEPTIDES AND COSMETIC AND/OR PHARMACEUTICAL COMPOSITION CONTAINING SAME” (ISP INVESTMENTS, priority 2009, published 2011):
Where no end group is shown, it is not given here.

Columns and labels:
[1] = tested on: Clock protein; assay: Immunolabeling of Clock protein in skin biopsies ex vivo; type: cell-based, human; settings: treated skin
Experimental: (§1) A study of the activating effect of the peptide SEQ ID no. 3 was carried out by evaluating the expression of Clock, Per-1 and BMAL-1 proteins in skin biopsies ex vivo.
(§2) Ex vivo studies by immunolabeling have made it possible to evidence the expression of Clock, Per-1 and BMAL-1 proteins in skin samples. Samples of human skin are cultured at the air/liquid interface. The peptide SEQ ID no. 3 diluted to 1% (from a 10^−4M solution) is applied topically to these samples for 48 hr.
(§3) Skin samples not treated with the peptide SEQ ID no. 3 serve as a control. The skin samples are fixed with 10% formaldehyde and enclosed in paraffin. Sectional cuts of 3 μm are then made with a microtome. The immunolabeling is carried out after removal of the paraffin and unmasking of the antigenic sites. The immunolabeling for the Clock protein is carried out by means of an antibody (ABcam) diluted 1/250 and a secondary antibody diluted 1/50 and coupled to a fluorochrome.
(§4) The slides are then mounted in a suitable medium and observed under epifluorescence microscope (Nikon Eclipse E600).

[2] = tested on: Clock protein; assay: Immunolabeling of Clock protein in skin samples aged artificially during culture; type: cell-based, human
Experimental: A study of the activating effect of the peptide SEQ ID no. 3 was carried out by evaluating the expression of the Clock protein in skin models, aged artificially during culture. The analysis was carried out after 62 hr and 134 hr of culturing.
Ex vivo studies by immunolabeling have made it possible to evidence the expression of the Clock protein in skin samples aged during culture. Samples of human skin are cultured at the air/liquid interface for 62 hr and 134 hr. The peptide SEQ ID no. 1 diluted to 1% (from a 10^−4M solution) is applied topically to these samples at a rate of two times per day during the period of the experiment.
as §3, with “μm are made with” for “μm are then made with”, “of an anti-rabbit antibody (ABcam)” for “of an antibody (ABcam)”
as §4

[3] = tested on: Per-1 protein; assay: Immunolabeling of Per-1 protein in skin biopsies ex vivo; type: cell-based, human; settings: treated skin
Experimental: as §1, §2, §3
The immunolabeling for the Per-1 protein is carried out by a polyclonal antibody (Cosmobio) diluted 1/100 and a secondary antibody diluted 1/50 and coupled to a fluorochrome.
as §4

[4] = tested on: BMAL-1 protein; assay: Immunolabeling of BMAL-1 protein in skin biopsies ex vivo; type: cell-based, human; settings: treated skin
Experimental: as §1, §2, §3
The immunolabeling for the BMAL-1 protein is carried out by a polyclonal antibody (Aviva Systems Biology) diluted 1/120 and a secondary antibody diluted 1/50 and coupled to a fluorochrome.
as §4

[5] = tested on: cultured fibroblasts; assay: Beta-galactosidase (X-gal) senescence labeling of cultured fibroblasts; type: cell-based; settings: peptide diluted to 1%, once a day, versus untreated control cells
Experimental: A study of the anti-aging effect of the peptide SEQ ID no. 3 was carried out by evaluating the activity of the beta-galactosidase on cultured fibroblasts in the short and long term. In fact, beta-galactosidase is known to be present in senescent cells whereas beta-galactosidase activity is not found in pre-senescent, quiescent or immortal cells.
Fibroblasts cultured in 8-well labtecks are kept for 2 weeks (short term effect) or 7 weeks (long term effect) in the presence or absence of the peptide SEQ ID no. 3, diluted to 1% (from a 10^−4M solution). The treatment is carried out once a day. The cells which were untreated, but kept in culture for 2 or 7 weeks per the requirements of the experiment serve as controls. On the day of labeling, the cells are rinsed, fixed in a mixture (2% glutaraldehyde-2% formaldehyde) for 3 minutes. The cells are rinsed and 300 μl of (5-bromo-4-chloro-3 indolyl b-D-galactosidase), known commonly as X-gal (substrate of beta-galactosidase), are applied. Incubation is carried out for 24 hr in an incubator in the presence of CO2, then the cells are rinsed and the labteck is quickly placed in a suitable medium. Observation is carried out under transmission microscope. The principle is simple: when the cells are senescent and contain beta-galactosidase, the X-gal substrate is cleaved into a blue, insoluble product.

[6] = tested on: Clock protein; assay: Western blot of Clock protein expression in cultured fibroblasts; type: cell-based
Experimental: A study of the activating effect of the peptide SEQ ID no. 2 was carried out by evaluating the expression of the Clock proteins by western blot in cultured fibroblasts. The technique of western blotting is a semi-quantitative method which makes it possible to evaluate the level of Clock proteins in cells.
Cultured fibroblasts are cultivated in containers with a diameter of 100 mm at 37° C. in a humidified atmosphere containing 5% CO2 for 18 hr in the presence or absence of the peptide SEQ ID no. 2, diluted to 1% (from a 10^−4M solution). The cells are rinsed and then removed from the support with the aid of an extraction buffer (20 mM TRIS, 150 mM NaCl, 10 mM EDTA, 0.2% triton […]) in the presence of a cocktail of protease inhibitors (Sigma). The proteins thus extracted are centrifuged at 4° C. at 10,000 rpm for 10 minutes, before being dosed by the BCA protein dosing kit (Pierce). The cellular lysates are mixed with a denaturing buffer and subjected to SDS-PAGE electrophoresis. The gel used is 4-12% Nupage (Invitrogen). The proteins are then transferred to a nitrocellulose membrane (Pal corporation). […] The quantitative evaluation of the proteins present in the cells was carried out using the chemiimager software (Alpha innotech Corporation USA).

| Beta-galactosidase activity (blue coloration), short term ([5]; 2 weeks) | Beta-galactosidase activity (blue coloration), long term ([5]; 7 consecutive weeks) | Substance | amount of Clock protein versus untreated skin [1] | labeling of the Clock protein compared to untreated control, 62 hr ([2]; after 62 hr of culturing) | labeling of the Clock protein compared to untreated control, 134 hr ([2]; after 134 hr) | amount of PER-1 protein versus untreated skin [3] | amount of BMAL-1 protein versus untreated skin [4] | Intensity (%) of Clock protein, Experiment 1 ([6]; 1% treatment (from a 10^-4M solution), 18 hr, cultured fibroblasts, luminous intensity compared to untreated control (100%)) | amount of Clock protein in the cultured fibroblasts ([6]; peptide diluted to 1%, western blot) |
| --- | --- | --- | --- | --- | --- | --- | --- | --- | --- |
| largely reduced | largely reduced | Ser-Thr-Pro-NH2 [SEQ ID no. 3] | greater | increased | largely increased | greater | greater |  |  |
|  |  | Val-Ser-Thr-Pro-Glu-NH2 (VSTPE-NH2) [SEQ ID no. 2] |  |  |  |  |  | 154% | significantly increases |
